Laboratory results: article PMC11995724, “Antibiotic target discovery by integrated phenotypic and activity-based profiling of electrophilic fragments” (Cell chemical biology, 2025)

Assay: in vitro
Details: human, hek293t cells

SMILES	viability at 48 h, 25 µM [%]
CN1C(=O)c2ccccc2C1CNC(=O)CCl (stereo not drawn) [7-B10, 2-chloro-N-[(2-methyl-3-oxo-2,3-dihydro-1H-isoindol-1-yl)methyl]acetamide]	4.11
CC(Cl)C(=O)N1CCCC1c1nccc(C(F)(F)F)n1 (stereo not drawn) [7-B11, 2-chloro-1-{2-[4-(trifluoromethyl)pyrimidin-2-yl]pyrrolidin-1-yl}propan-1-one]	106
O=C(CCl)NCC(=O)N(c1ccccc1)c1ccccc1 [7-B12, 2-chloro-N-[(diphenylcarbamoyl)methyl]acetamide]	1.21
Cc1cc(N2CCCC(NC(=O)C(C)Cl)C2=O)n(C)n1 (stereo not drawn) [7-B13, 2-chloro-N-[1-(1,3-dimethyl-1H-pyrazol-5-yl)-2-oxopiperidin-3-yl]propanamide]	95.8
O=C(CCl)NC1CCCOc2c(F)cccc21 (stereo not drawn) [7-B14, 2-chloro-N-(9-fluoro-2,3,4,5-tetrahydro-1-benzoxepin-5-yl)acetamide]	0.886
CCc1nsc(N2CCCN(C(=O)C(C)Cl)CC2)n1 (stereo not drawn) [7-B15, 2-chloro-1-[4-(3-ethyl-1,2,4-thiadiazol-5-yl)-1,4-diazepan-1-yl]propan-1-one]	84.3
O=C(CCl)N(Cc1nc(C2CCCCCC2)no1)C1CC1 [7-B16, 2-chloro-N-[(3-cycloheptyl-1,2,4-oxadiazol-5-yl)methyl]-N-cyclopropylacetamide]	0.667
CC(Cl)C(=O)N1CCOCC1c1nc(-c2cccs2)no1 (stereo not drawn) [7-B17, 2-chloro-1-{3-[3-(thiophen-2-yl)-1,2,4-oxadiazol-5-yl]morpholin-4-yl}propan-1-one]	75.7
C=C(Cl)CN(C(=O)CCl)C1CCc2ccccc21 (stereo not drawn) [7-B18, 2-chloro-N-(2-chloroprop-2-en-1-yl)-N-(2,3-dihydro-1H-inden-1-yl)acetamide]	0.322
CC(Cl)C(=O)NC(C)c1nc(Cc2ccccc2)no1 (stereo not drawn) [7-B19, N-[1-(3-benzyl-1,2,4-oxadiazol-5-yl)ethyl]-2-chloropropanamide]	79.9
Cc1cc(CN(C(=O)CCl)C2CCCC2)c2ccccc2n1 [7-B20, 2-chloro-N-cyclopentyl-N-[(2-methylquinolin-4-yl)methyl]acetamide]	0.493
CC(Cl)C(=O)N(C)Cc1cc(C(C)(C)C)[nH]n1 (stereo not drawn) [7-B21, N-[(5-tert-butyl-1H-pyrazol-3-yl)methyl]-2-chloro-N-methylpropanamide]	80.5
O=C(CCl)NC(c1ccc(F)c(C(F)(F)F)c1)C1CC1 (stereo not drawn) [7-B22, 2-chloro-N-{cyclopropyl[4-fluoro-3-(trifluoromethyl)phenyl]methyl}acetamide]	0.631
CC(Cl)C(=O)NCC1CN(S(C)(=O)=O)C1 (stereo not drawn) [7-C04, 2-chloro-N-[(1-methanesulfonylazetidin-3-yl)methyl]propanamide]	118
CC(Cl)C(=O)N1CCCCCC1c1noc(-c2cnn(C)c2)n1 (stereo not drawn) [7-C05, 2-chloro-1-{2-[5-(1-methyl-1H-pyrazol-4-yl)-1,2,4-oxadiazol-3-yl]azepan-1-yl}propan-1-one]	92.8
CC(Cl)C(=O)N1CCc2ncsc2C1 (stereo not drawn) [7-C06, 2-chloro-1-{4H,5H,6H,7H-[1,3]thiazolo[5,4-c]pyridin-5-yl}propan-1-one]	92.6
CC(Cl)C(=O)N1CCC(N(CC(F)(F)F)S(C)(=O)=O)CC1 (stereo not drawn) [7-C07, N-[1-(2-chloropropanoyl)piperidin-4-yl]-N-(2,2,2-trifluoroethyl)methanesulfonamide]	94.8
CC(Cl)C(=O)N1CCOCC1c1ncnn1Cc1ccccc1 (stereo not drawn) [7-C08, 1-[3-(1-benzyl-1H-1,2,4-triazol-5-yl)morpholin-4-yl]-2-chloropropan-1-one]	95.7
CC(Cl)C(=O)N1C2C=C(c3ccccc3)CC1CC2 (stereo not drawn) [7-C09, 2-chloro-1-{3-phenyl-8-azabicyclo[3.2.1]oct-2-en-8-yl}propan-1-one]	81.3
CC(Cl)C(=O)N(C)Cc1ncnn1CC(F)F (stereo not drawn) [7-C10, 2-chloro-N-{[1-(2,2-difluoroethyl)-1H-1,2,4-triazol-5-yl]methyl}-N-methylpropanamide]	97.8
CC(Cl)C(=O)NCc1csc2ccccc12 (stereo not drawn) [7-C11, N-[(1-benzothiophen-3-yl)methyl]-2-chloropropanamide]	81.9
CC(Cl)C(=O)NCCc1c[nH]c2ncccc12 (stereo not drawn) [7-C12, 2-chloro-N-(2-{1H-pyrrolo[2,3-b]pyridin-3-yl}ethyl)propanamide]	88.4
CC(Cl)C(=O)N1CCCC(NS(=O)(=O)c2cccc(F)c2)C1 (stereo not drawn) [7-C13, N-[1-(2-chloropropanoyl)piperidin-3-yl]-3-fluorobenzene-1-sulfonamide]	79.3
COc1ccc(N(C)C(=O)C(C)Cl)cc1Cl (stereo not drawn) [7-C14, 2-chloro-N-(3-chloro-4-methoxyphenyl)-N-methylpropanamide]	80.4
CC(Cl)C(=O)N1CCCc2ccc(N(C)C)cc2C1 (stereo not drawn) [7-C15, 2-chloro-1-[8-(dimethylamino)-2,3,4,5-tetrahydro-1H-2-benzazepin-2-yl]propan-1-one]	82.1
CC(Cl)C(=O)N(C)C1CCN(c2ccccc2Cl)C1=O (stereo not drawn) [7-C16, 2-chloro-N-[1-(2-chlorophenyl)-2-oxopyrrolidin-3-yl]-N-methylpropanamide]	77.8

SMILES	viability at 48 h, 25 µM [%]
CC(Cl)C(=O)NC1CCN(c2ccccc2C(F)(F)F)C1 (stereo not drawn) [7-C17, 2-chloro-N-{1-[2-(trifluoromethyl)phenyl]pyrrolidin-3-yl}propanamide]	67.5
Cc1ncccc1OCC1CCCN1C(=O)C(C)Cl (stereo not drawn) [7-C18, 2-chloro-1-(2-{[(2-methylpyridin-3-yl)oxy]methyl}pyrrolidin-1-yl)propan-1-one]	76.6
CC(Cl)C(=O)NC(c1ccc(F)cc1)c1cnn(C)c1 (stereo not drawn) [7-C19, 2-chloro-N-[(4-fluorophenyl)(1-methyl-1H-pyrazol-4-yl)methyl]propanamide]	93.1
CCc1cnc(N2CCN(C(=O)C(C)Cl)CC2)s1 (stereo not drawn) [7-C20, 2-chloro-1-[4-(5-ethyl-1,3-thiazol-2-yl)piperazin-1-yl]propan-1-one]	79.5
CC(Cl)C(=O)NC1CCCN(c2ncccn2)C1 (stereo not drawn) [7-C21, 2-chloro-N-[1-(pyrimidin-2-yl)piperidin-3-yl]propanamide]	93.1
CC(Cl)C(=O)N1CCN(CC(F)(F)F)CC1C(C)C (stereo not drawn) [7-C22, 2-chloro-1-[2-(propan-2-yl)-4-(2,2,2-trifluoroethyl)piperazin-1-yl]propan-1-one]	91.5
CCC(NC(=O)CCl)c1c(C)noc1C (stereo not drawn) [7-D03, 2-chloro-N-[1-(3,5-dimethyl-1,2-oxazol-4-yl)propyl]acetamide]	104
CN1C(=O)[C@H](NC(=O)CCl)COc2ccccc21 [7-D04, 2-chloro-N-[(3R)-5-methyl-4-oxo-2,3,4,5-tetrahydro-1,5-benzoxazepin-3-yl]acetamide]	2.02
O=C(CCl)NCc1cn[nH]c1C(F)F [7-D05, 2-chloro-N-{[5-(difluoromethyl)-1H-pyrazol-4-yl]methyl}acetamide]	0.404
N#Cc1cccc2c1CC[C@H]2NC(=O)CCl [7-D06, 2-chloro-N-[(1R)-4-cyano-2,3-dihydro-1H-inden-1-yl]acetamide]	0.673
CC(Cl)C(=O)NC1CCN(Cc2cscn2)CC1 (stereo not drawn) [7-D07, 2-chloro-N-{1-[(1,3-thiazol-4-yl)methyl]piperidin-4-yl}propanamide]	111
CCC(NC(=O)CCl)c1cccc(OC)n1 (stereo not drawn) [7-D08, 2-chloro-N-[1-(6-methoxypyridin-2-yl)propyl]acetamide]	1.69
CC(Cl)C(=O)NCCc1nnc2n1CCCCC2 (stereo not drawn) [7-D09, 2-chloro-N-(2-{5H,6H,7H,8H,9H-[1,2,4]triazolo[4,3-a]azepin-3-yl}ethyl)propanamide]	101
COC1(OC)CCOCC1NC(=O)CCl (stereo not drawn) [7-D10, 2-chloro-N-(4,4-dimethoxyoxan-3-yl)acetamide]	19.1
Cc1nnc(C(C)NC(=O)C(C)Cl)s1 (stereo not drawn) [7-D11, 2-chloro-N-[1-(5-methyl-1,3,4-thiadiazol-2-yl)ethyl]propanamide]	104
O=C(CCl)N[C@H]1C[C@H](c2ccccc2)C1 [7-D12, 2-chloro-N-[(1r,3r)-3-phenylcyclobutyl]acetamide]	0.742
CC(Cl)C(=O)N1CCN(c2oc(-c3ccco3)nc2C#N)CC1 (stereo not drawn) [7-D13, 5-[4-(2-chloropropanoyl)piperazin-1-yl]-2-(furan-2-yl)-1,3-oxazole-4-carbonitrile]	85
CSc1ccccc1CC(C)NC(=O)CCl (stereo not drawn) [7-D14, 2-chloro-N-{1-[2-(methylsulfanyl)phenyl]propan-2-yl}acetamide]	1.59
CC(Cl)C(=O)N1CCCCC1c1nc(-c2ncccn2)no1 (stereo not drawn) [7-D15, 2-chloro-1-{2-[3-(pyrimidin-2-yl)-1,2,4-oxadiazol-5-yl]piperidin-1-yl}propan-1-one]	85.8
O=C(CCl)NC(c1ccc(F)c(Cl)c1)C(F)(F)F (stereo not drawn) [7-D16, 2-chloro-N-[1-(3-chloro-4-fluorophenyl)-2,2,2-trifluoroethyl]acetamide]	0.544
CC(Cl)C(=O)N1CCn2c(cc3c(Cl)cccc32)C1 (stereo not drawn) [7-D17, 2-chloro-1-{9-chloro-1H,2H,3H,4H-pyrazino[1,2-a]indol-2-yl}propan-1-one]	55.6
O=C(CN(CC1CCCO1)C(=O)CCl)N1CCCC1 (stereo not drawn) [7-D18, 2-chloro-N-[2-oxo-2-(pyrrolidin-1-yl)ethyl]-N-[(oxolan-2-yl)methyl]acetamide]	99.8
Cc1cc(C2CCCN2C(=O)C(C)Cl)no1 (stereo not drawn) [7-D19, 2-chloro-1-[2-(5-methyl-1,2-oxazol-3-yl)pyrrolidin-1-yl]propan-1-one]	88.5
CC(NC(=O)CCl)C(c1ccccc1Cl)n1cccn1 (stereo not drawn) [7-D20, 2-chloro-N-[1-(2-chlorophenyl)-1-(1H-pyrazol-1-yl)propan-2-yl]acetamide]	1.01
CC(Cl)C(=O)NCc1ccc2cnn(C)c2c1 (stereo not drawn) [7-D21, 2-chloro-N-[(1-methyl-1H-indazol-6-yl)methyl]propanamide]	87.7
